Some test systems named below: MOLT-4 leukemia; SK-MEL-28 melanoma; SN12C renal; UACC-257 melanoma; UO-31 renal; CCRF-CEM leukemia; HCT-116 colon; MCF7 breast; DU-145 prostate.
What all share (experiment): growth of human tumour cells (NCI), 48 h

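Step 1: Grow cells in 96-well plates. Step 2: Expose to compound for 48 hours at 5 concentrations. Step 3: Interpolate endpoints linearly; if unreached, use highest concentration. At the GI50, growth is halved. TGI marks complete inhibition of growth.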

As to `CN=C(/N=c1\ssc(=NC)n1C)N(C)C`, the TGI in the test with MOLT-4 leukemia, in the test with SK-MEL-28 melanoma, in the test with SN12C renal, in the test with UACC-257 melanoma and in the test on UO-31 renal was more than 100 µM throughout.
On to `CC(C)(C)n1c(=O)[nH]c(=O)n1C(C)(C)C`, for which the TGI in the test on CCRF-CEM leukemia, in the test on HCT-116 colon, in the test with MCF7 breast, with MOLT-4 leukemia, in the test with SK-MEL-28 melanoma and in the test on SN12C renal was more than 100 µM each time. The TGI in the test on UACC-257 melanoma and in the test with UO-31 renal was more than 100 µM in each case.
On to `COc1cccc(N[C@@H]2c3cc4c(cc3C(c3cc(OC)c(O)c(OC)c3)[C@H]3C(=O)OCC32)OCO4)c1` (stereo partly drawn), for which the TGI is 2.69 µM in the test with CCRF-CEM leukemia; 18.7 µM in the test with HCT-116 colon; 14.4 µM with MCF7 breast; 0.164 µM in the test with MOLT-4 leukemia; more than 61.2 µM in the test on SK-MEL-28 melanoma; 34.3 µM in the test with UACC-257 melanoma. In the test with UO-31 renal, the TGI stood at 9.78 µM.
In the case of `CCN=C1C=CC(=C(c2ccc(N(CC)CC)cc2)c2ccc(N(CC)CC)cc2)c2ccccc21`, the results for the GI50 in the test with CCRF-CEM leukemia, in the test with DU-145 prostate and in the test with UACC-257 melanoma were 0.0471 µM, 0.0492 µM and 0.077 µM, respectively. Further, the figures for the TGI with CCRF-CEM leukemia, in the test on DU-145 prostate and with UACC-257 melanoma were 1.52 µM, 1.37 µM and 1.18 µM, respectively.
For the compound `Cc1ccc(S(=O)(=O)Nn2c(O)c(C#N)c(-c3ccc(Cl)cc3)c(C#N)c2=O)cc1`, the TGI with CCRF-CEM leukemia, in the test on HCT-116 colon, in the test with MCF7 breast, in the test on MOLT-4 leukemia, in the test on SK-MEL-28 melanoma and in the test with SN12C renal was more than 100 µM throughout. In the test on UACC-257 melanoma, this compound had a TGI of more than 100 µM.
For `O=C(O)c1ccccc1N=Cc1ccc(N(CCCl)CCCl)cc1`, the TGI with CCRF-CEM leukemia, with HCT-116 colon, in the test with MCF7 breast, in the test on MOLT-4 leukemia, in the test with SK-MEL-28 melanoma and in the test on SN12C renal was more than 100 µM in each case. For the same compound, the TGI in the test on UACC-257 melanoma and in the test with UO-31 renal was more than 100 µM each time.
Regarding `NCc1cccc(O)c1O`, the TGI in the test on CCRF-CEM leukemia, with HCT-116 colon, in the test on MOLT-4 leukemia, in the test on SK-MEL-28 melanoma, with SN12C renal and with UACC-257 melanoma was more than 100 µM each time. This compound also returned a TGI in the test on UO-31 renal of more than 100 µM.
On to `Cc1ccccc1-c1nc2c(C(=O)NCCN(C)C)cccc2[nH]1`, for which the TGI in the test on CCRF-CEM leukemia was more than 100 µM; in the test on HCT-116 colon, more than 100 µM; in the test with MCF7 breast, more than 100 µM; in the test with MOLT-4 leukemia, 75.6 µM; in the test on SK-MEL-28 melanoma, more than 100 µM; in the test with SN12C renal it was more than 100 µM. For the same compound, the TGI in the test on UACC-257 melanoma was more than 100 µM; in the test on UO-31 renal, 68.7 µM.
On to `CC1(C)CC2(CC(C)(C)N1O)NC(=O)OC2=O`, for which the TGI with CCRF-CEM leukemia, in the test on HCT-116 colon, in the test on MCF7 breast, with MOLT-4 leukemia, in the test on SK-MEL-28 melanoma and in the test on SN12C renal was more than 100 µM each time. In addition, the TGI in the test on UACC-257 melanoma and in the test on UO-31 renal was more than 100 µM in each case.
As for `O=c1c(-c2ccccc2)c(SCCO)n(-c2ccccc2)c(=S)n1-c1ccccc1`, the TGI in the test with CCRF-CEM leukemia, with DU-145 prostate, in the test with HCT-116 colon, in the test on MCF7 breast, in the test with MOLT-4 leukemia and with SK-MEL-28 melanoma was more than 100 µM throughout. Also, the TGI in the test with SN12C renal, in the test on UACC-257 melanoma and in the test with UO-31 renal was more than 100 µM throughout.
Consider `COc1cccc(C=O)c1[O-].[O]=[U](=[O])([OH2+])[OH2+]`, for which the TGI is more than 100 µM with CCRF-CEM leukemia; more than 100 µM in the test on HCT-116 colon; 73.2 µM in the test with MOLT-4 leukemia; more than 100 µM in the test with SK-MEL-28 melanoma; more than 100 µM with SN12C renal; more than 100 µM with UACC-257 melanoma. The compound also registered a TGI in the test on UO-31 renal of more than 100 µM.
As to `O=c1oc(C(C(F)(F)F)C(F)(F)F)nc2ccccc12`, the TGI in the test with CCRF-CEM leukemia, in the test on HCT-116 colon, in the test with MCF7 breast, with MOLT-4 leukemia, in the test with SK-MEL-28 melanoma and with UACC-257 melanoma was more than 100 µM throughout. The same compound registered a TGI in the test with UO-31 renal of more than 100 µM.
For `Cc1cc(OC(=O)NCn2cc(-c3ccccc3)nn2)ccc1Cl`, the TGI in the test with CCRF-CEM leukemia, in the test with DU-145 prostate, in the test with HCT-116 colon, with MCF7 breast, in the test on MOLT-4 leukemia and in the test with SK-MEL-28 melanoma was more than 100 µM each time. Further, the TGI in the test with SN12C renal and in the test with UACC-257 melanoma was more than 100 µM in each case.
`CC(C)(C)OC(=O)NCC(CNC(=O)OC(C)(C)C)c1nc(C(N)=O)cs1`: the TGI in the test on CCRF-CEM leukemia, with HCT-116 colon, with MCF7 breast, in the test on MOLT-4 leukemia, in the test with SK-MEL-28 melanoma and in the test with SN12C renal was more than 100 µM throughout. Also, the TGI in the test on UACC-257 melanoma and with UO-31 renal was more than 100 µM each time.

These data come from PubChem BioAssay (NCI).
